The source of these data is ChEMBL document CHEMBL5625201, “Discovery and structure-activity relationship studies of novel α-ketoamide derivatives targeting the SARS-CoV-2 main protease” (Eur J Med Chem, 2023).

The target in data set [1] is T1, Replicase polyprotein 1ab (Severe acute respiratory syndrome coronavirus 2, UniProt P0DTD1). Nature of the data set: Inhibition of SARS-CoV-2 main protease by FRET assay.
A further data set deals with Cytochrome P450 3A4 (Homo sapiens, UniProt P08684). Nature of the data set: Inhibition of CYP3A4 (unknown origin). In kind it is ADME.
Cytochrome P450 3A4, sequence (P08684 whole entry): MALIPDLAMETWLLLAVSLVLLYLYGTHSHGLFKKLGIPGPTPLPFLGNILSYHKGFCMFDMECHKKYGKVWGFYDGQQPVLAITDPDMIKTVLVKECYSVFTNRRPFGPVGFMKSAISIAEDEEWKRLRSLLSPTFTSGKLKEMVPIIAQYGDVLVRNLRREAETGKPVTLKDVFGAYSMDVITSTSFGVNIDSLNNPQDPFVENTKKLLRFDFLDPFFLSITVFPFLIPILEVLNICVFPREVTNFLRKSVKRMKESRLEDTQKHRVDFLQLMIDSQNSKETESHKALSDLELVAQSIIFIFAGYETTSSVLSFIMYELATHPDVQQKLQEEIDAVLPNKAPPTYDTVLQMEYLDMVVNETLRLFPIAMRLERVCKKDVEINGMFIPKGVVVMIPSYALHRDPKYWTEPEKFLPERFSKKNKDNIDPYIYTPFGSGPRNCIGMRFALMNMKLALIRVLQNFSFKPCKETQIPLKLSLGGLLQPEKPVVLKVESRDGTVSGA
For a further data set, the target named is Cytochrome P450 2C9 (Homo sapiens, UniProt P11712). Nature of the data set: Inhibition of CYP2C9 (unknown origin). It counts as ADME.
Cytochrome P450 2C9, sequence (P11712 whole entry): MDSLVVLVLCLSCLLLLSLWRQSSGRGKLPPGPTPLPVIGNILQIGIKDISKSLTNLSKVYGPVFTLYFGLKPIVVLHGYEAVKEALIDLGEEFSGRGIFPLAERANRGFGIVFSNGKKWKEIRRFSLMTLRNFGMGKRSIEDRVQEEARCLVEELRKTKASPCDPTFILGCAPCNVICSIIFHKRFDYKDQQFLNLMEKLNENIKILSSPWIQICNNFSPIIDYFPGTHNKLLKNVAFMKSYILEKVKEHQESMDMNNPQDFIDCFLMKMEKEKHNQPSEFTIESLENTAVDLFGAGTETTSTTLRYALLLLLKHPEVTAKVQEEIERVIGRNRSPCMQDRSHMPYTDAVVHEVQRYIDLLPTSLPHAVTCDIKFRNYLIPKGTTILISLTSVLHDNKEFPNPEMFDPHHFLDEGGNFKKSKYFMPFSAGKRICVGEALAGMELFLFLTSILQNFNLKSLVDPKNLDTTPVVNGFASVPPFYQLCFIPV
Data set [2] in a line: Cytotoxicity against human BEAS-2B cells. In kind it is toxicity, cell-based.
The subject of data set [3] is SARS-CoV-2. Nature of the data set: Antiviral activity against SARS-CoV-2 infected in human HPAEpiC cells assessed as reduction in viral replication by RT-qPCR assay. It counts as functional, organism-based. Conditions: Severe acute respiratory syndrome coronavirus 2, HPAEpiC; call rule not given here. On the technique in general: In qPCR the cycle at which signal appears reflects the starting amount.

Data set [4] is described as follows: Cytotoxicity against African green monkey Vero cells. Conditions: chlorocebus sabaeus. It counts as toxicity, cell-based.
For data set [5], the target named is T1, Replicase polyprotein 1ab. Nature of the data set: Inhibition of SARS-CoV-2 Main protease using MCA-AVLQSGFR-Lys(DNP)-Lys-NH2 as substrate preincubated for 10 mins followed by substrate addition by FRET assay.
Data set [6] has as its system SARS-CoV-2. Nature of the data set: Antiviral activity against SARS CoV-2 infected in African green monkey VeroE6/TMPRSS2 assessed as reduction in plaque formation measured after 2 days by crystal violet staining based assay. Conditions: Severe acute respiratory syndrome coronavirus 2, VeroE6/TMPRSS2, 48 h. In kind it is functional, organism-based.

Take `O=C(CNC(=O)C1CCC(F)(F)CC1)N[C@H](Cc1ccc(Cl)c(Cl)c1)C(=O)C(=O)NCc1ccccn1`: the IC50 (in general, the concentration that inhibits the measured activity by half) in data set [1] was determined as 34.4 nM.
Take `N#Cc1cc(C(=O)NCC(=O)N[C@H](Cc2ccccc2)C(=O)C(=O)NCc2ccccn2)ccc1F`: the IC50 in data set [1] is 168 nM.
Compound `C[C@@H](NC(=O)CC1CCC(F)(F)CC1)C(=O)N[C@H](Cc1ccccc1)C(=O)C(=O)NCc1ccccn1` registered an IC50 in data set [1] of 16.1 nM.
Regarding `O=C(CNC(=O)c1ccccc1)N[C@H](Cc1ccccc1)C(=O)C(=O)NCc1ccccn1`, the “inhibition (INH)” value at Cytochrome P450 3A4 and against Cytochrome P450 2C9 was “Active” throughout. The compound further returned an IC50 in data set [1] of 141 nM.
As to `CN(CC(=O)N[C@H](Cc1ccccc1)C(=O)C(=O)NCc1ccccn1)C(=O)C1CCC(F)(F)CC1`, the IC50 in data set [1] came to 30.6 nM.
Same read-out and setting: as for `CC[C@@H](NC(=O)C1CCC(F)(F)CC1)C(=O)N[C@H](Cc1ccccc1)C(=O)C(=O)NCc1ccccn1`, the figure is 41.6 nM.
For `C[C@@H](NC(=O)C1CCC(F)(F)CC1)C(=O)N[C@H](Cc1ccccc1)C(=O)C(=O)NCc1ccccn1`, the CC50 in data set [2] and in data set [4] was greater than 100000 nM in each case. For the same compound, the EC50 (commonly the concentration needed to bring the measured effect to its halfway point) in the data set with SARS-CoV-2 [3] turned out to be 65.3 nM.
Take `CCC(CC)COC(=O)[C@H](C)N[P@](=O)(OC[C@H]1O[C@@](C#N)(c2ccc3c(N)ncnn23)[C@H](O)[C@@H]1O)Oc1ccccc1`: the EC50 with SARS-CoV-2 [3] amounted to 364 nM.
Compound `O=C(CNC(=O)c1ccc(Cl)c(F)c1)N[C@H](Cc1ccccc1)C(=O)C(=O)NCc1ccccn1` yielded an IC50 in data set [1] of 18.5 nM.
Turning to `CC(C)(C)[C@H](NC(=O)C(F)(F)F)C(=O)N1C[C@H]2[C@@H]([C@H]1C(=O)N[C@H](C#N)C[C@@H]1CCNC1=O)C2(C)C`, the EC50 in the data set with SARS-CoV-2 [3] was found to be 50 nM.
For the compound `O=C(CCc1ccccc1)N[C@H](Cc1ccccc1)C(=O)C(=O)NCc1ccccn1`, the “inhibition (INH)” value against Cytochrome P450 3A4 and at Cytochrome P450 2C9 was “Active” in each case. Moreover, the IC50 in data set [1] came to 86.7 nM.
For the compound `O=C(CNC(=O)[C@@H]1C[C@@H]2[C@H](C1)C2(F)F)N[C@H](Cc1ccccc1)C(=O)C(=O)NCc1ccccn1`, in data set [1], the IC50 came to 17.9 nM.
Turning to `O=C(CNC(=O)C1CCC(F)(F)CC1)N[C@H](Cc1ccccc1)C(=O)C(=O)NCc1ccccn1`, the CC50 in data set [2] and in data set [4] was greater than 100000 nM each time. The EC50 in the data set with SARS-CoV-2 [3] came out at 102 nM.
For the compound `O=C(CC1CCC(F)(F)CC1)NCC(=O)N[C@H](Cc1ccccc1)C(=O)C(=O)NCc1ccccn1`, the IC50 in data set [1] turned out to be 15 nM.
`O=C(NCc1ccccn1)C(=O)[C@@H](Cc1ccccc1)NC(=O)[C@H]1CC(F)(F)CN1C(=O)CC1CCC(F)(F)CC1`: half-maximal inhibition in data set [1] (IC50) was put at 35 nM.
As for `O=C(COc1ccccc1)N[C@H](Cc1ccccc1)C(=O)C(=O)NCc1ccccn1`, the “inhibition (INH)” value on Cytochrome P450 3A4 and against Cytochrome P450 2C9 was “Active” throughout. In addition, the IC50 in data set [1] is 55.5 nM.
In the case of `COC[C@@H](NC(=O)C1CCC(F)(F)CC1)C(=O)N[C@H](Cc1ccccc1)C(=O)C(=O)NCc1ccccn1`, the CC50 in data set [2] and in data set [4] was greater than 100000 nM each time. In the data set on SARS-CoV-2 [3], the EC50 worked out at 59.5 nM. Further, it took 17 nM to reach half-maximal inhibition in data set [1] (IC50).
For the compound `O=C(CCCc1ccccc1)N[C@H](Cc1ccccc1)C(=O)C(=O)NCc1ccccn1`, the “inhibition (INH)” value on Cytochrome P450 3A4 and at Cytochrome P450 2C9 was “Active” in each case. Moreover, in data set [1], half-maximal inhibition (IC50) was put at 33.8 nM.
Regarding `O=C(NCc1ccccn1)C(=O)[C@@H](Cc1ccccc1)NC(=O)[C@H]1COCCN1C(=O)[C@@H]1C[C@@H]2[C@H](C1)C2(F)F`, the IC50 in data set [1] was determined as 23.6 nM.
`O=C(NCc1ccccn1)C(=O)[C@@H](Cc1ccccc1)NC(=O)C1(NC(=O)C2CCC(F)(F)CC2)CC1`: in data set [1], half-maximal inhibition (IC50) required 21.2 nM.
Regarding `O=C(NCc1ccccn1)C(=O)[C@@H](Cc1ccccc1)NC(=O)[C@H]1CC(F)(F)CN1C(=O)[C@@H]1C[C@@H]2[C@H](C1)C2(F)F`, half-maximal inhibition in data set [1] (IC50) required 37.2 nM.
Turning to `O=C(Cc1ccccc1)N[C@H](Cc1ccccc1)C(=O)C(=O)NCc1ccccn1`, in data set [1], the IC50 amounted to 219 nM.
As for `O=C(NCc1ccccn1)C(=O)[C@@H](Cc1ccccc1)NC(=O)[C@H]1COCCN1C(=O)CC1CCC(F)(F)CC1`, the CC50 in data set [2] and in data set [4] was greater than 100000 nM in each case. The EC50 with SARS-CoV-2 [3] came out at 66.4 nM. The midpoint of inhibition in data set [1], the IC50, lay at 10.9 nM.
For the compound `C[C@@H](NC(=O)[C@@H]1C[C@@H]2[C@H](C1)C2(F)F)C(=O)N[C@H](Cc1ccccc1)C(=O)C(=O)NCc1ccccn1`, the CC50 in data set [2] and in data set [4] was greater than 100000 nM throughout. Also, in the data set with SARS-CoV-2 [3], the EC50 stood at 97.8 nM.
In data set [5], `[2H][C@](C(=O)N[C@@H](C)c1ccc(F)cc1)(c1ccccc1)N(C(=O)C(C)=O)c1ccc2c(c1)oc1ccccc12` had an IC50 of 8 nM. The EC50 with SARS-CoV-2 [6] is 11 nM.
Turning to `O=C(NCc1ccccn1)C(=O)[C@@H](Cc1ccccc1)NC(=O)c1ccccc1`, in data set [1], the IC50 came to 208 nM.
